# Reference: patent publication US20230220105A1, “TUMOR ACTIVATED T CELL ENGAGERS AND METHODS OF USE THEREOF” (Janux Therapeutics, Inc., priority 2019, published 2023)
# Tests used:
# neutravidin alone = neutravidin alone (Gallus gallus, UniProt P02701); test: Phagemid ELISA, neutravidin background; type: binding; details: clonal phage displaying the peptide; ELISA signal on neutravidin alone
# Protocol: The next day the deep well plates were centrifuged to separate the soluble phagemid from the E. coli cells. The phagemid containing supernatants were then combined with PBS-Tween 20 (0.05%) + BSA (1%) blocking buffer and incubated in ELISA wells containing Neutravidin captured biotin-conjugated target or Neutravidin alone. After binding at 4 degrees the plates were washed, and specifically bound phage were detected by anti-m13 HRP conjugated antibodies using standard TMB-based chromogenic ELISA procedures. Daughter plates or individual wells were subjected to standard DNA sequencing for clonal peptide sequence identification.
# The next day the deep well plates were centrifuged to separate the soluble phagemid from the E. coli cells. The phagemid containing supernatants were then combined with PBS-Tween 20 (0.05%) + BSA (1%) pH neutral blocking buffer and incubated in previously TCR coated and blocked wells. After binding at 4° C. the plates were washed and specifically bound phage were detected by anti-m13 HRP conjugated antibodies using standard TMB-based chromogenic ELISA procedures (FIG. 17B). Daughter plates or individual wells were subjected to standard DNA sequencing for peptide identification.
# MAGE-A3 TCR (TCR-1) = test: Kinetic binding of TCR to peptides (Octet BLI); details: Table 3; Ala mutants of Peptide-5 and controls
# Protocol: BLI based kinetic binding of TCR to peptides was measured using a ForteBio Octet RED96 instrument. Biotinylated peptides were first directly captured on streptavidin biosensors. Sensors were quenched using excess biocytin and then baselined in buffer. A dilution series of TCR was made and associated onto the peptide loaded biosensor. Association and dissociation signals were monitored in real-time. Signals were fit to a 1:1 binding model in order to derive binding constants, kon and koff, as well as KD.
# [1] = system: TCR-1 binding to MAGE-A3 pMHC; test: Inhibition of kinetic binding of TCR to its cognate pMHC (BLI); details: Table 3
# Protocol: First, biotinylated pMHC was captured on streptavidin biosensors. Sensors were quenched using excess biocytin and then baselined in buffer. Inhibitory peptide was titrated in a two fold dilution series starting from 100 uM and pre-incubated with a constant concentration of 50 nM TCR. Peptide and TCR mixtures were then associated onto the pMHC loaded biosensor. Zero concentration of inhibitory peptide or zero concentration of TCR were used as controls. Association and dissociation signals were monitored in real-time. The maximal association signal was normalized from 100% (0 uM inhibitory peptide control) to 0% (0 nM TCR control) and plotted versus log-scale inhibitory peptide concentration.
# [2] = biological target: TCR-1 binding to MAGE-A3 pMHC; test: Inhibition of equilibrium binding of TCR to its cognate pMHC (ELISA)
# Protocol: Inhibition of TCR binding to its cognate pMHC was also measured in an ELISA format. Biotinylated pMHC was captured on neutravidin coated plates, quenched using excess biocytin, and washed. Inhibitory peptide was titrated in a half-log dilution series starting from 100 uM and pre-incubated with a constant concentration of 1 nM TCR. Inhibitory peptide and TCR mixtures were then incubated on the pMHC captured plates. A secondary HRP antibody conjugate that recognized the histag of the TCR was then used to detect the plate bound TCR. […] Dose dependent decrease of signal was indicative of peptides that compete for TCR binding to its cognate pMHC.
# TCR-1 = test: Inhibitory peptide specificity evaluation (BLI); type: binding; details: 100 uM TCR on Peptide-5 saturated biosensor
# Protocol: (§1) Potent inhibitory peptides were tested for TCR specific binding. […] This family of TCRs differ in sequence by point mutations in the CDR domains know to contribute to binding affinity and specificity for cognate MAGE-A3 pMHC. […] TCRs were associated at the extreme concentration of 100 uM onto the inhibitory peptide loaded biosensor. In parallel, 100 uM TCRs were associated on a blank control sensor to establish background signal related to non-specific binding of the TCRs. Association and dissociation signals were monitored in real-time.
# TCR-2 = test: Inhibitory peptide specificity evaluation (BLI); type: binding; details: 100 uM TCR on Peptide-5 saturated biosensor
# Protocol: as §1
# TCR-3 = test: Inhibitory peptide specificity evaluation (BLI); type: binding; details: 100 uM TCR on Peptide-5 saturated biosensor
# Protocol: as §1
# TCR-4 = test: Inhibitory peptide specificity evaluation (BLI); type: binding; details: 100 uM TCR on Peptide-5 saturated biosensor
# Protocol: as §1
# Sequence of neutravidin alone (P02701 25-152): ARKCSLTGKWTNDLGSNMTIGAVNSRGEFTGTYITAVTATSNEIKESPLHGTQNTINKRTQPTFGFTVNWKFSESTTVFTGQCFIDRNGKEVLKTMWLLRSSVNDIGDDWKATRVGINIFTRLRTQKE
SMILES,Phage ELISA NAv bkgd (neutravidin alone),Octet BLI Binds TCR (MAGE-A3 TCR (TCR-1)),Octet BLI Competes at 100 uM [1],"IC50 ([2]; Table 2, 1 nM TCR) [nM]",IC50 ([2]; Table 3) [nM],binding of Peptide-5 to TCR-1 (TCR-1),binding of Peptide-5 to TCR-2 (TCR-2),binding of Peptide-5 to TCR-3 (TCR-3),binding of Peptide-5 to TCR-4 (TCR-4)
CC(C)[C@H](NC(=O)[C@@H]1CSSC[C@H](NC(=O)CNC(=O)CNC(=O)CN)C(=O)N[C@@H](Cc2ccccc2)C(=O)N[C@@H](C(C)C)C(=O)N[C@@H](CO)C(=O)N2CCC[C@H]2C(=O)N[C@@H](C)C(=O)N[C@@H]([C@@H](C)O)C(=O)NCC(=O)N[C@@H](Cc2ccccc2)C(=O)N[C@@H]([C@@H](C)O)C(=O)N[C@@H](Cc2c[nH]c3ccccc23)C(=O)N1)C(=O)NCC(=O)NCC(=O)NCC(=O)NCC(=O)N[C@@H](CO)C(=O)NCCOCCOCCOCCOCCC(=O)N[C@@H](CCCCNC(=O)CCCC[C@@H]1SC[C@@H]2NC(=O)N[C@@H]21)C(N)=O [Peptide-17],0.13,,,,,,,,
CC(C)[C@H](NC(=O)CNC(=O)CN)C(=O)N[C@@H](CO)C(=O)N[C@H]1CSSC[C@@H](C(=O)N[C@@H](Cc2c[nH]c3ccccc23)C(=O)N[C@H](C(=O)NCC(=O)NCC(=O)NCC(=O)NCC(=O)N[C@@H](CO)C(=O)NCCOCCOCCOCCOCCC(=O)N[C@@H](CCCCNC(=O)CCCC[C@@H]2SC[C@@H]3NC(=O)N[C@@H]32)C(N)=O)[C@@H](C)O)NC(=O)[C@H](Cc2ccccc2)NC(=O)[C@H](C)NC(=O)[C@H](CCC(=O)O)NC(=O)[C@H](CC(=O)O)NC(=O)[C@H](Cc2ccc(O)cc2)NC(=O)[C@H](C(C)C)NC(=O)[C@H](CC(=O)O)NC(=O)[C@H](CCCCN)NC1=O [Peptide-5],,Yes,Yes,600,600,readily bound,signal was identical to that of background,signal was identical to that of background,signal was identical to that of background
